# Results reported in patent US5741516A, “Sphingosomes for enhanced drug delivery” (priority 1995, dated 1998).
# Read-outs that look alike come from different tables or passages of the source.
# What was measured:
# [1] = in vivo; cited from earlier work
# [2] = Bioavailability of liposomal swainsonine; assay type: in vivo, Balb/c mice; conditions: p.o. vs i.v.
# Procedure: Female Balb/c mice, 5-6 weeks of age, were housed under standard conditions. […] Swainsonine (Toronto Res. Chem.) was radiolabeled with tritium. Tritiated swainsonine was administered as a lipid-based formulation (L-Im) and as an aqueous formulation containing the free drug (F-Im). Tritiated swainsonine was loaded into sphingomyelin/cholesterol (Avanti Polar Labs) sphingosomes using a citrate buffer pH 2 gradient at a drug-to-lipid ratio of 0.2:1 (mol:mol) and with an efficiency of loading of 80%. Two hundred microliters of the lipid and aqueous swainsonine formulations were given orally by gavage (p.o.), intraperitoneally (i.p.), or intravenously (i.v.). Fifty microliter blood samples were collected by retroorbital bleeds at 1, 3, 6, and 24 hours after administration. The blood samples were bleached and then counted in a scintillation counter. Results were expressed as the percentage of the administered dose in the blood at various time-points after administration.
# [3] = for Survival (%): 14 days; for animals that died after chemotherapy (in words): LD50 dose, within a few days
# Description: Female C57BL/6 mice (average weight 15.03 g), were used and housed under standard conditions. The animals received free access to both food and water throughout the experiment after a one week acclimatization period prior to experimental manipulation. The mice were 6 weeks old on the beginning of the experiment and placed randomly in 12 groups of 5 mice per group.
# [4] = In vitro oral stability in gastric contents; assay type: physicochemical; conditions: simulated gastric contents; hydrochloric acid (pH2) with pepsin; up to 72 hours
# Procedure: To establish an advantage for the oral route of administration, swainsonine was incubated in vitro in simulated gastric contents for various periods of time (1, 2, 4, 24, 48 and 72 hrs.) and the "oral stability" of swainsonine was determined. Swainsonine was also incubated in hydrochloric acid (pH2) containing the main gastric digestive enzyme, pepsin.
# bone marrow [5] = assay: Bone marrow cellularity after chemotherapy; assay type: in vivo, C57BL/6 mice; conditions: 14 days after chemotherapy; orally or i.p., vs GM-CSF i.p. 10 days
# Procedure: On the 15th day after the initial chemotherapeutic dose, 4 mice from each group of the immunomodulation study (Example 6) were randomly sacrificed and up to 1 ml of blood was obtained by cardiac puncture. Circulating peripheral WBCs were counted, blood smears (for neutrophil counts) were made and plasma samples were collected and tested for cytokine production (IL-1, IL-2, TNF). Blood cytokine levels (TNF, IL-1, and IL-2) were assayed by commercially available assay kits. The spleen, thymus and bone marrow were removed and single cell suspensions were prepared. The cellularity of these lymphoid organs was assessed by trypan blue exclusion test.
# TNF-α = assay: TNF production by mitogen-stimulated splenocytes; assay type: in vivo, C57BL/6 mice; conditions: vs chemotherapy-treated and PBS controls, FIG. 10A
# Procedure: (§1) Cells from spleen, thymus and bone marrow were tested for their ability to respond to stimulation from different mitogens: ConA (1, 2.5 and 5 μg/ml) (Sigma), phytohemagglutinin (PHA) (1, and 2.5 μg/ml) (Sigma) and LPS (2.5 and 5 μg/ml) (Difco). After 72 hours of stimulation the proliferative response was measured using CellTiter 96 (Promega). Simultaneously, mitogen stimulated splenocytes were set up for cytokine production after ConA (2.5 μg/ml) and lipopolysaccharide (LPS) (2.5 μg/ml) stimulation. The supernatants were collected after 24 hr. and 48 hr. and tested for Tumor Necrosis Factor-α (TNF-α) and Interleukin-2 (IL-2) production using the direct ELISA method. Supernatants from unstimulated cells served as controls. Results are expressed as pg/ml of TNF-α (sensitivity of the assay is <25 pg/ml) or IL-2 (sensitivity of the assay is <3 pg/ml).
# tumor cells = conditions: in vitro; cited from earlier work
# IL-2 = IL-2 production by mitogen-stimulated splenocytes; assay type: in vivo, C57BL/6 mice; conditions: vs chemotherapy-treated and PBS controls, FIG. 10B
# Procedure: as §1
# [6] = tested on: colon cancer and melanoma cancers; conditions: combined with interferon, in vivo; cited from earlier work
# [7] = tested on: IL-1, IL-2, TNF, GM-CSF and interferons; conditions: cited from earlier work
# bone marrow [8] = conditions: cited from earlier work
# [9] = Vincristine uptake into liposomes by pH gradient; assay type: physicochemical; conditions: drug/lipid 0.1/1 (wt/wt), 10 minutes at 60° C
# Procedure: Uptake of vincristine into large unilamellar liposomes was achieved using a pH gradient-dependent procedure described by Mayer et al., Cancer Chemother. Pharmacol. 33:17-24 (1993), incorporated herein by reference. Briefly, a solution of vincristine sulfate (Oncovin®, Eli Lilly, Indianapolis, Ind.) was added to liposomes at a drug/lipid ratio of 0.1/1 (wt/wt) and equilibrated at 60° C. for 5 to 10 minutes. Vincristine uptake in response to a transmembrane pH gradient was initiated by the addition of 0.5M Na2 HPO4 to bring the external pH to 7.2-7.6.
# A431 tumors = assay: Antitumor efficacy against A431 tumors; assay type: in vivo, human A431 xenograft, SCID mice; conditions: vincristine 2.0 mg/kg i.v.
# Procedure: Tumor loading and antitumor efficacy properties of DSPC/Chol and SM/Chol liposomal formulations of vincristine were determined in mice bearing solid human A431 squamous cell xenograft tumors. These experiments were undertaken to ensure that the positive results observed in the murine ascitic P388 tumor model were representative of other tumor types. SCID mice bearing 100-200 mg solid human A431 tumors were injected i.v. with free vincristine or with liposomes of either DSPC/Chol or SM/Chol containing vincristine. Vincristine encapsulated DSPC/Chol and SM/Chol liposomes were prepared as in Example II. […] As observed in BDF1 mice bearing P388 tumors, the amount of vincristine remaining in the circulation in SM/Chol liposomes at 24 hours after injection was approximately 3-fold greater than for vincristine encapsulated in DSPC/Chol liposomes (FIG. 11A).
# The antitumor efficacy of free and liposomal vincristine against A431 was closely correlated with vincristine accumulation at the tumor site (FIG. 12). […] This therapy was further enhanced by a single treatment of vincristine encapsulated in SM/Chol liposomes. […] Of the five mice (total of 10 tumors) treated with SM/Chol liposomal vincristine, 1 animal was terminated early due to tumor ulceration, not due to tumor growth.
compound,measurement,setting,value
sphingomyelin,circulation lifetime of liposomes,[1],increase in the circulation lifetime of liposomes
O[C@H]1[C@H]2[C@H](O)CCCN2C[C@H]1O [swainsonine],oral bioavailability compared to swainsonine administered intravenously,[2],60-65%
same,Survival (%),[3]; i.p.,100%
same,Survival (%),[3]; p.o.,100%
same,survival beyond 2 weeks after chemotherapy (in words),"[3]; swainsonine intravenously or i.p. / GM-CSF i.p., 10 days, after Mtx or Dox",all animals
same,survival after cytotoxic treatment (in words),[3]; swainsonine p.o. 10 days after Mtx or Dox,all but one animal
same,in vitro oral stability,[4],stable under these harsh conditions for up to 72 hours
same,bone marrow cellularity,bone marrow [5],performed as effectively as GM-CSF
same,TNF level in stimulated splenocytes,TNF-α,significantly elevated
same,"B- and T-cell immunity, natural killer T-cell and macrophage-induced destruction of tumor cells",tumor cells,"induces B- and T-cell immunity, natural killer T-cell and macrophage-induced destruction of tumor cells in vitro"
same,IL-2 level in stimulated splenocytes,IL-2,significantly elevated
same,direct anti-tumor activity,[6],direct anti-tumor activity against colon cancer and melanoma cancers
same,production of multiple cytokines,[7],stimulates the production of multiple cytokines
same,bone marrow proliferation,bone marrow [8],has the capacity to stimulate bone marrow proliferation
"CN(Cc1cnc2nc(N)nc(N)c2n1)c1ccc(C(=O)N[C@@H](CCC(=O)O)C(=O)O)cc1 [MTX, methotrexate]",animals that died after chemotherapy (in words),[3],Half
same,Survival (%),[3]; i.p.,40%
CC[C@]1(O)C[C@H]2CN(CCc3c([nH]c4ccccc34)[C@@](C(=O)OC)(c3cc4c(cc3OC)N(C=O)[C@H]3[C@@](O)(C(=O)OC)[C@H](OC(C)=O)[C@]5(CC)C=CCN6CC[C@]43[C@@H]65)C2)C1 [vincristine],trapping efficiency,[9],approximately 95%
same,delay in tumor growth / change in tumor size,A431 tumors,brief delay in tumor growth
same,time to 100% increase in tumor weight,A431 tumors,6 to 8 days
same,time to required termination,A431 tumors,10 to 12 days
"COc1cccc2c1C(=O)c1c(O)c3c(c(O)c1C2=O)C[C@@](O)(C(=O)CO)C[C@@H]3O[C@H]1C[C@H](N)[C@H](O)[C@H](C)O1 [DOX, Doxorubicin]",animals that died after chemotherapy (in words),[3],half
same,Survival (%),[3]; i.p.,60%
